# According to ChEMBL document CHEMBL3596116, “Conformational analysis of peramivir reveals critical differences between free and enzyme-bound states” (Medchemcomm, 2014):
# pIC50: −log10 of the molar value.
# Molecular target: Neuraminidase (Influenza A virus, UniProt B4URF0)
# Set-up: species or system unidentified adenovirus
# Sequence of Neuraminidase (B4URF0 whole entry): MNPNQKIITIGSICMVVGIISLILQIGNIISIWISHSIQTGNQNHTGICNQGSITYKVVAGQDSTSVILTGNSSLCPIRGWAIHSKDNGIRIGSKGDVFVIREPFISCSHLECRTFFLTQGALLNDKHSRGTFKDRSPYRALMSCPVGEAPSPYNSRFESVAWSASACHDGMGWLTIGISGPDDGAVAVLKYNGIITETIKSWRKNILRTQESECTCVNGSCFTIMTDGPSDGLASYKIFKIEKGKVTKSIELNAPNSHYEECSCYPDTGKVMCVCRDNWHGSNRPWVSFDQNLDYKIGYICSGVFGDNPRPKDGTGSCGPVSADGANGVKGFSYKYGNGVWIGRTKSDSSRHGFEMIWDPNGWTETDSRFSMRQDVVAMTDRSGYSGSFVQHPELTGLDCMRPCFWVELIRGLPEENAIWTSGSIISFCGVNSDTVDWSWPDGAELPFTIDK
smiles,measurement,value
CCC(CC)[C@H](NC(C)=O)[C@@H]1[C@H](O)[C@@H](C(=O)O)C[C@H]1NC(=N)N [PERAMIVIR ANHYDROUS],pIC50,10.00
